Source: patent publication US20210038579A1, “Treatment Of Patients With Classic Fabry Disease” (Amicus Therapeutics, Inc., priority 2018, published 2021)
Numbering of substitutions follows the chain as printed.

Assays:
[1] = molecular target: T1, α-Gal A mutant form p.Arg112His (c.335 G > A) (Homo sapiens, UniProt P06280, R112H); assay: HEK assay: α-Gal A activity in HEK-293 cell lysate with migalastat; assay type: cell-based
T1 construct: expressed in transfected cells; host or cells: HEK-293
T1 sequence (P06280 32-429 R112H): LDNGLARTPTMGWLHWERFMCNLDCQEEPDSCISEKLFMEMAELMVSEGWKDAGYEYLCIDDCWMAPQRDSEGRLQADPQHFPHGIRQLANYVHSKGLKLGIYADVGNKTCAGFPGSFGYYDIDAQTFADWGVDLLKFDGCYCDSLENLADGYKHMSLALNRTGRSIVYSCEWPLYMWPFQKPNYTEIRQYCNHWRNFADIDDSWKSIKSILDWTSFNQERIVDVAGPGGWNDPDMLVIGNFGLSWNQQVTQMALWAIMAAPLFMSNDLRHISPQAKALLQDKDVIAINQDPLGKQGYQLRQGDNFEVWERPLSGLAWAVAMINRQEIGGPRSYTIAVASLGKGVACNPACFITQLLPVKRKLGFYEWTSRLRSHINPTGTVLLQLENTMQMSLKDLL
Experimental: (§1) Such mutations are also referred to herein as “HEK assay amenable” mutations.
(§2) In this assay, cDNA constructs are created. The corresponding α-Gal A mutant forms are transiently expressed in HEK-293 cells. Cells are then incubated±migalastat (17 nM to 1 mM) for 4 to 5 days. After, α-Gal A levels are measured in cell lysates using a synthetic fluorogenic substrate (4-MU-α-Gal) or by western blot. This has been done for known disease-causing missense or small in-frame insertion/deletion mutations.

[2] = molecular target: T2, α-Gal A mutant form p.Arg356Trp (c.1066 C > T) (Homo sapiens, UniProt P06280, R356W); assay: as above; assay type: cell-based
T2 construct: expressed in transfected cells; host or cells: HEK-293
T2 sequence (P06280 32-429 R356W): T1 sequence (P06280 32-429 R112H) with H81R, R325W
Experimental: as §1, §2

[3] = molecular target: T3, α-Gal A mutant form p.Asp33Gly (c.98 A > G) (Homo sapiens, UniProt P06280, D33G); assay: as above; assay type: cell-based
T3 construct: expressed in transfected cells; host or cells: HEK-293
T3 sequence (P06280 32-429 D33G): T1 sequence (P06280 32-429 R112H) with D2G, H81R
Experimental: as §1, §2

[4] = molecular target: T4, α-Gal A mutant form p.Pro259Arg (c.776 C > G) (Homo sapiens, UniProt P06280, P259R); assay: as above; assay type: cell-based
T4 construct: expressed in transfected cells; host or cells: HEK-293
T4 sequence (P06280 32-429 P259R): T1 sequence (P06280 32-429 R112H) with H81R, P228R
Experimental: as §1, §2

[5] = Phase 3 study, ERT-naïve Fabry patients: echocardiography (LVMi); assay type: in vivo, human; settings: for mean (SD) change in LVMi: baseline (or month 6) to month 24; for LVMi change: after 24 months of treatment
Experimental: Patient Enrollment. […] Study Design. […] Echocardiography. LVMi, left posterior wall thickness, diastolic, interventricular septum thickness, diastolic and other parameters were assessed through blinded, centralized evaluation. For all outcomes except GL-3 inclusions per kidney interstitial capillary, data are pooled for patients within phenotype subgroups regardless of treatment allocation for the first six months (migalastat or placebo).

[6] = test system: plasma lyso-Gb3; assay: Phase 3 study, ERT-naïve Fabry patients: plasma lyso-Gb3 by liquid chromatography-mass-spectroscopy; assay type: in vivo, human; settings: baseline (or month 6) to month 24
Experimental: Globotriaosylceramide and Globotriaosylsphingosine. Plasma lyso-Gb3 and 24-hour urine GL-3 were analyzed by liquid chromatography-mass-spectroscopy using a novel stable isotope-labeled internal standard, 13C6-lyso-Gb3 (lower-limit-of-quantification: 0.200 ng/mL, 0.254 nmol/L).
For all outcomes except GL-3 inclusions per kidney interstitial capillary, data are pooled for patients within phenotype subgroups regardless of treatment allocation for the first six months (migalastat or placebo).

[7] = human, in vivo
[8] = +10 μM migalastat, HEK-293 cell lysate, mean ± SEM, n = 20
[9] = HEK293, 10 μM migalastat minus baseline, read-out: Absolute increase at 10 μM (% WT)

OC[C@H]1NC[C@H](O)[C@@H](O)[C@H]1O [migalastat]
α-Gal A activity at 10 μM (fold over baseline) ([1]; 10 μM migalastat): 6.61 fold over baseline | +Migalastat α-Gal A activity [1, 8]: 5583 ± 215 nmol/mg/h | +Migalastat α-Gal A activity % WT [1, 8]: 17.4 ± 0.8 % WT | activation at 10 µM [1, 9]: 14.8% | α-Gal A activity at 10 μM (fold over baseline) ([2]; 10 μM migalastat): 4.42 fold over baseline | +Migalastat α-Gal A activity [2, 8]: 15570 ± 830 nmol/mg/h | +Migalastat α-Gal A activity % WT [2, 8]: 49.1 ± 2.6 % WT | activation at 10 µM [2, 9]: 38.1% | α-Gal A activity at 10 μM (fold over baseline) ([3]; 10 μM migalastat): 2.42 fold over baseline | +Migalastat α-Gal A activity [3, 8]: 24033 ± 865 nmol/mg/h | +Migalastat α-Gal A activity % WT [3, 8]: 70.6 ± 2.4 % WT | activation at 10 µM [3, 9]: 41.3% | α-Gal A activity at 10 μM (fold over baseline) ([4]; 10 μM migalastat): 2.64 fold over baseline | +Migalastat α-Gal A activity [4, 8]: 17645 ± 515 nmol/mg/h | +Migalastat α-Gal A activity % WT [4, 8]: 60.3 ± 3.8 % WT | activation at 10 µM [4, 9]: 37% | classic male patients with data reporting a reduction in LVMi ([5]; classic male patients, age range 16-61 years): 7/8 | mean (SD) change in LVMi ([5]; classic males): −16.7 (18.64) g/m^2 | mean (SD) change in LVMi ([5]; other patients): −3.2 (18.66) g/m^2 | LVMi change ([5]; overall migalastat-treated population): −7.7 g/m^2 | LVMi change ([5]; patients with LVH): −18.6 g/m^2 | average (SD) change in plasma lyso-Gb3 ([6]; classic males): −36.04 (34.48) nmol/L | average (SD) change in plasma lyso-Gb3 ([6]; other patients): −16.33 (19.73) nmol/L | deaths [7]: No deaths were reported
